Source: US10051861B2, “N-arylamidine-substituted trifluoroethyl sulfide derivatives as acaricides and insecticides” (BAYER CROPSCIENCE AG, priority 2011, dated 2018)
Like-named read-outs stand apart in the source and are kept apart here. Marks after values point to notes of the source that are not given here.

Columns and labels:
[1] = test system: greenhouse red spider mite (Tetranychus urticae); experiment: Tetranychus urticae spray test, OP-resistant (TETRUR), bean leaf disks; format: in vivo; settings: application rate 500 g/ha, after 6 days; for pest or weed control at 500 g/ha: Tetranychus urticae, foliar, 144 h, read-out: efficacy (spider mites killed)
Procedure: (§1) After 6 days, the effect in % is determined.

[2] = test system: green peach aphid (Myzus persicae); experiment: Myzus persicae spray test (MYZUPE); format: in vivo; settings: after 6 days
Procedure: as §1

[3] = test system: Boophilus microplus; experiment: Boophilus microplus test (BOOPMI injection); format: in vivo; design: dose or concentration left out as unconfirmed; settings: after 7 days
Procedure: (§2) Solvent: dimethyl sulfoxide
The solution of active compound is injected into the abdomen (Boophilus microplus), and the animals are transferred into dishes and kept in a climatized room. The activity is assessed by laying of fertile eggs.
100% means that none of the ticks has laid any fertile eggs.

[4] = logP by HPLC on reversed-phase columns (C 18), EEC Directive 79/831 Annex V.A8; format: physicochemical; settings: for chromatographic logP: reversed-phase C18 HPLC column; for logP(HCOOH): pH 2.7; for logP(neutral): pH 7.8
Procedure: Calibration is carried out using unbranched alkan-2-ones (having from 3 to 16 carbon atoms) with known log P values (the log P values are determined by the retention times using linear interpolation between two successive alkanones).

[5] = test system: cattle ticks (Boophilus microplus); experiment: Boophilus microplus injection test (BOOPMI Inj); format: in vivo; settings: application rate 20 μg/animal, injection, after 7 days; for pest or weed control at 0.02 mg: Rhipicephalus microplus, 168 h, read-out: efficacy (laying of fertile eggs)
Procedure: as §2
1 μl of the active compound solution is injected into the abdomen of 5 engorged adult female cattle ticks (Boophilus microplus). The animals are transferred into dishes and kept in a climate-controlled room.
The activity is assessed after 7 days by laying of fertile eggs. Eggs whose fertility is not visible from the outside are stored in a climate-controlled cabinet until the larvae hatch after about 42 days. An efficacy of 100% means that none of the ticks has laid any fertile eggs; 0% means that all eggs are fertile.

[6] = test system: larvae of the mustard beetle (Phaedon cochleariae); experiment: Phaedon cochleariae spray test (PHAECO); settings: application rate 500 g/ha, after 7 days
[7] = test system: larvae of the mustard beetle (Phaedon cochleariae); experiment: Phaedon test (PHAECO spray treatment); settings: application rate 500 g/ha, after 7 days
[8] = test system: greenhouse red spider mite (Tetranychus urticae); experiment: Tetranychus test, OP-resistant (TETRUR spray treatment); format: in vivo; settings: application rate 500 g/ha, after 6 days
Procedure: as §1

[9] = test system: L1 larvae of the Australian sheep blowfly (Lucilia cuprina); experiment: Lucilia cuprina test (LUCICU); format: in vivo; settings: application rate 100 ppm, after 2 days
Procedure: as §2
About 20 L1 larvae of the Australian sheep blowfly (Lucilia cuprina) are transferred into a test vessel containing minced horsemeat and the active compound preparation of the desired concentration.
After 2 days, the kill in % is determined.

[10] = pH 2.7, [a] LC-MS, acidic range, pH 2.7, 0.1% aqueous formic acid/acetonitrile, read-out: logP(HCOOH)

Structure (SMILES)	logP(HCOOH) [4]	logP(neutral) [4]	effect (beetle larvae killed) [6] [%]	efficacy (spider mites killed) [1] [%]	efficacy (beetle larvae killed) [7] [%]	efficacy (spider mites killed) [8] [%]	also measured
CN(C)/C(=N\c1cc([S+]([O-])CC(F)(F)F)c(Cl)cc1Cl)c1cccnc1 (stereo not shown) [Ib-123]	–	–	–	–	–	–	pest or weed control at 500 g/ha [1]: 100%; effect (aphids killed) ([2]; application rate 500 g/ha): 90%
Cc1cc(F)c(/N=C(/N(C)C)C(F)(F)F)cc1SCC(F)(F)F [Ia-01, 2,2,2-Trifluoro-N′-{2-fluoro-4-methyl-5-[(2,2,2-trifluoroethyl)sulfanyl]phenyl}-N,N-dimethylethanimidamide]	–	–	–	–	–	–	efficacy (laying of fertile eggs) [3]: 100%; pest or weed control at 500 g/ha [1]: 100%; chromatographic logP [4, 10]: 4.48; chromatographic logP ([4]; pH 7.8, [b] LC-MS, neutral range, pH 7.8, 0.001 molar aqueous ammonium bicarbonate/acetonitrile, read-out: logP(neutral)): 4.5; pest or weed control at 0.02 mg [5]: 100%
CNC(=Nc1cc([S+]([O-])CC(F)(F)F)c(C)cc1F)C(F)(F)F (stereo not shown) [Ib-07]	2.64	2.61	–	100	–	100	efficacy (laying of fertile eggs) [5]: 100%
Cc1cc(F)c(/N=C(\NCC2CCCC(C(F)(F)F)C2)C2CC2)cc1SCC(F)(F)F (stereo not shown) [Ia-228]	–	–	–	–	–	–	pest or weed control at 500 g/ha [1]: 90%; effect (aphids killed) ([2]; application rate 500 g/ha): 100%
Cc1cc(F)c(N=C(NC(C)C)C(F)(F)F)cc1[S+]([O-])CC(F)(F)F (stereo not shown) [Ib-03]	–	–	–	100	–	100	efficacy (laying of fertile eggs) [5]: 100%
CNC(=Nc1cc(SCC(F)(F)F)c(Cl)cc1Cl)C(F)(F)F [Ia-15]	4.2^[a]; 4.2^[b]	4.2^[a]; 4.2^[b]	100	100	100	100	–
Cc1cc(F)c(/N=C(\N)C(F)(F)C(F)(F)F)cc1[S+]([O-])CC(F)(F)F (stereo not shown) [Ib-42]	–	–	–	–	–	–	pest or weed control at 500 g/ha [1]: 100%; effect (aphids killed) ([2]; application rate 100 g/ha): 80%
Cc1cc(F)c(/N=C(/N(C)C)C(F)(F)F)cc1[S+]([O-])CC(F)(F)F (stereo not shown) [Ib-01, 2,2,2-Trifluoro-N′-{2-fluoro-4-methyl-5-[(2,2,2-trifluoroethyl)sulfinyl]phenyl}-N,N-dimethylethanimidamide]	–	–	–	–	–	–	efficacy (laying of fertile eggs) [3]: 100%; pest or weed control at 500 g/ha [1]: 90%; chromatographic logP [4, 10]: 3.15; pest or weed control at 0.02 mg [5]: 100%
Cc1cc(F)c(N=C(N)C(F)(F)C(F)(F)C(F)(F)C(F)(F)C(F)(F)C(F)F)cc1SCC(F)(F)F [Ia-22]	–	–	–	100	–	–	efficacy (laying of fertile eggs) [3]: 100%; efficacy (laying of fertile eggs) [5]: 100%
CNC(=Nc1cc(SCC(F)(F)F)c(C)cc1F)C(F)(F)F [Ia-13]	3.7	3.71	100	100	100	100	efficacy (laying of fertile eggs) [5]: 100%; efficacy (kill of larvae) [9]: 90%
CNC(=Nc1ccc(C(F)(F)F)c(SCC(F)(F)F)c1)C(F)(F)F [Ia-19]	–	–	100	100	100	–	–
Cc1cc(C)c(SCC(F)(F)F)cc1/N=C(\N)C1(Cl)CC1 [Ia-34]	–	–	–	–	–	–	pest or weed control at 500 g/ha [1]: 100%; pest or weed control at 0.02 mg [5]: 100%; effect (aphids killed) ([2]; application rate 500 g/ha): 90%
NC(=Nc1cc(SCC(F)(F)F)c(Cl)cc1Cl)C(F)(F)F [Ia-14]	–	–	100	100	100	–	–
Cc1cc(F)c(/N=C(\NC(C)C(F)(F)F)C2CC2)cc1SCC(F)(F)F (stereo not shown) [Ia-206]	–	–	–	–	–	–	pest or weed control at 500 g/ha [1]: 100%; pest or weed control at 0.02 mg [5]: 100%; effect (aphids killed) ([2]; application rate 500 g/ha): 100%
Cc1cc(F)c(N=C(N)C(F)F)cc1SCC(F)(F)F [Ia-03]	–	–	–	100	–	100	log P ([4]; pH 2.3): 2.2^[c]
Cc1cc(F)c(/N=C(/N)c2ccc(F)cc2)cc1SCC(F)(F)F [Ia-116]	–	–	–	–	–	–	pest or weed control at 500 g/ha [1]: 100%; pest or weed control at 0.02 mg [5]: 100%; effect (aphids killed) ([2]; application rate 500 g/ha): 90%

Now from value to compound, other results behind:

logP(HCOOH) [4]	logP(neutral) [4]	Structure (SMILES)	effect (beetle larvae killed) [6] [%]	efficacy (spider mites killed) [1] [%]	efficacy (beetle larvae killed) [7] [%]	efficacy (spider mites killed) [8] [%]	also measured
2.05	2.02	N/C(=N/c1cc([S+]([O-])CC(F)(F)F)c(Cl)cc1Cl)C(F)(F)F (stereo not shown) [Ib-14]	100	100	100	–	efficacy (laying of fertile eggs) [3]: 100%; efficacy (laying of fertile eggs) [5]: 100%
3.23	3.19	Cc1cc(C)c([S+]([O-])CC(F)(F)F)cc1N=C(N(C)C)C(F)(F)F (stereo not shown) [Ib-09]	–	100	–	100	–
3.24	3.17	CCCNC(=Nc1cc([S+]([O-])CC(F)(F)F)c(C)cc1F)C(F)(F)F (stereo not shown) [Ib-06]	–	100	–	100	–
4.87^[a]; 4.87^[b]	4.87^[a]; 4.87^[b]	Cc1cc(C)c(SCC(F)(F)F)cc1N=C(N(C)C)C(F)(F)F [Ia-23]	–	100	–	100	–
3.72	3.69	CNC(=Nc1cc(SCC(F)(F)F)c(F)cc1C)C(F)(F)F [Ia-09]	–	80	–	80	–
4.51	4.52	Cc1cc(F)c(N=C(NC(C)C)C(F)(F)F)cc1SCC(F)(F)F [Ia-05]	100	100	100	100	–
2.2	2.19	N/C(=N/c1ccc(C(F)(F)F)c([S+]([O-])CC(F)(F)F)c1)C(F)(F)F (stereo not shown) [Ib-16]	100	100	100	–	efficacy (laying of fertile eggs) [3]: 100%; efficacy (laying of fertile eggs) [5]: 100%
4.12^[a]; 4.12^[b]	4.12^[a]; 4.12^[b]	CCNC(=Nc1cc(SCC(F)(F)F)c(C)cc1F)C(F)(F)F [Ia-18]	100	100	100	100	–
3.68^[a]	–	Cc1cc(F)c(N=C(NCc2ccccn2)C(F)(F)F)cc1SCC(F)(F)F [Ia-04]	100	100	100	–	efficacy (laying of fertile eggs) [3]: 80%; efficacy (laying of fertile eggs) [5]: 80%
2.52	2.49	CN/C(=N/c1ccc(C(F)(F)F)c([S+]([O-])CC(F)(F)F)c1)C(F)(F)F (stereo not shown) [Ib-10]	100	100	100	–	efficacy (laying of fertile eggs) [3]: 100%; efficacy (laying of fertile eggs) [5]: 100%
4.03	4.02	Cc1cc(F)c(N=C(NC2CC2)C(F)(F)F)cc1SCC(F)(F)F [Ia-26]	–	100	–	100	–
3.36	3.3	Cc1cc(C)c([S+]([O-])CC(F)(F)F)cc1/N=C(/N)C(F)(F)F (stereo not shown) [Ib-12]	–	100	–	100	efficacy (laying of fertile eggs) [5]: 100%
4.45	4.43	CCCNC(=Nc1cc(SCC(F)(F)F)c(C)cc1F)C(F)(F)F [Ia-02]	100	100	100	100	–
2.86	2.79	CNC(=Nc1cc([S+]([O-])CC(F)(F)F)c(F)cc1C)C(F)(F)F (stereo not shown) [Ib-05]	–	80	–	80	–
3.15	3.09	CNC(=Nc1cc([S+]([O-])CC(F)(F)F)c(C)cc1C)C(F)(F)F (stereo not shown) [Ib-04]	–	80	–	80	–
